Key:
TrCel7B = molecular target: T1, TrCel7B (Trichoderma reesei, UniProt P07981); experiment: inhibition of 4-methylumbelliferyl-beta-lactoside hydrolysis, fluorescence, initial rates; assay type: biochemical; details: 20 μM MUL, 10 nM enzyme, 50 mM sodium acetate pH 5.0, BSA 0.1 g/l, 35°C
T1 construct: gene egl1; native enzyme purified from culture filtrate of T. reesei QM 9414; secreted, signal peptide removed
T1 sequence (P07981 23-459): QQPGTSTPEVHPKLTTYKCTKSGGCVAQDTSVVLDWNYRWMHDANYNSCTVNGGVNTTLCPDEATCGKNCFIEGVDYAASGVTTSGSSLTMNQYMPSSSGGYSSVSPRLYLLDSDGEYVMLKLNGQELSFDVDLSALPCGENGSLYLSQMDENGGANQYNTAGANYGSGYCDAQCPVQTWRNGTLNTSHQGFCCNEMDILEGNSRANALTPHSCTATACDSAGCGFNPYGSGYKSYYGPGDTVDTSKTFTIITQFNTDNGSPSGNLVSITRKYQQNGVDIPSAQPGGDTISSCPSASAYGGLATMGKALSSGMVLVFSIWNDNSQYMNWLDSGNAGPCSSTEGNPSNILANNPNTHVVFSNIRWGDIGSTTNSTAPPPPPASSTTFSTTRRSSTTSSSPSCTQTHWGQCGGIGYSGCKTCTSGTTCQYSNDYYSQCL

TrCel7A = molecular target: T2, TrCel7A (Trichoderma reesei, UniProt P62694); experiment: as above; assay type: biochemical; details: 5 μM MUL, 10 nM enzyme, 50 mM sodium acetate pH 5.0, BSA 0.1 g/l, 35°C
T2 construct: gene cbh1; native enzyme purified from culture filtrate of T. reesei QM 9414; secreted, signal peptide removed; about 50 kDa
T2 sequence (P62694 18-513): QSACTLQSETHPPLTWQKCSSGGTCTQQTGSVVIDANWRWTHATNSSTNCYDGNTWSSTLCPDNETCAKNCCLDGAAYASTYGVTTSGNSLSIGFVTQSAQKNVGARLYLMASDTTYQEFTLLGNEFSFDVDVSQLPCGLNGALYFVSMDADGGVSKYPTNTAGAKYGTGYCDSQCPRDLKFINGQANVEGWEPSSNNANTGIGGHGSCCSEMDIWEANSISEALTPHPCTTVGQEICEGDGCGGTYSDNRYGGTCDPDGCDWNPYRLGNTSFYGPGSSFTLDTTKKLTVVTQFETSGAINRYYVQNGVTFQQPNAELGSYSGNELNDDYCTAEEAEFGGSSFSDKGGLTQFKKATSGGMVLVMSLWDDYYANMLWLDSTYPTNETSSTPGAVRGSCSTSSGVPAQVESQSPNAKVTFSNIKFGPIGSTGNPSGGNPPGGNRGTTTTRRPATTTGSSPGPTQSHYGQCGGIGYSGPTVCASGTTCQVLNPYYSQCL

SMILES: OC[C@H]1O[C@@H](O[C@H]2[C@H](O)[C@@H](O)C(O)O[C@@H]2CO)[C@H](O)[C@@H](O)[C@@H]1O (some centres unmarked) [cellobiose]
- IC50 (TrCel7B): 8.9 ± 0.4 mM
- IC50 (TrCel7A): 0.036 ± 0.006 mM

Reference: publication PMC3849272, “Strong cellulase inhibitors from the hydrothermal pretreatment of wheat straw” (Biotechnology for Biofuels, 2013)
